Holding throughout (type): cell-based
Experiment [1] deals with human skin fibroblasts NB1-RGB cells. The experiment can be described thus: Measurement of cells in which apoptosis had been caused (JC-1 green fluorescence, mitochondrial membrane potential as index). Particulars: aged cells (600 μM hydrogen peroxide), specimen 10 μM, 48 hours; relative value with normal cells as 1. The protocol:
The effect on mitochondrial function improvement in human skin fibroblasts NB1-RGB cells was measured under the following conditions using a mitochondrial membrane potential as an index. By performing an operation for 4 days in which confluent NB1-RGB cells were cultured for one hour in a DMEM medium containing 10% fetal bovine serum and 600 μM hydrogen peroxide solution, cells induced of artificial aging by oxidation were prepared as aged cells. These aged cells and normal, unprocessed cells were prepared at a seeding density of 4,000 cells/cm^2 and cultured for 24 hours in the DMEM medium containing 10% fetal bovine serum. […] After changing a medium to new assay solution supplied in Assay Kit, a fluorescence intensity of the living cells was measured at an excitation wavelength of 520 to 570 nm and a fluorescence wavelength of 570 to 610 nm, and the dead cells at an excitation wavelength of 485 nm and a fluorescence wavelength of 535 nm. In order to obtain a ratio of dead cells in which apoptosis had been caused, only the green fluorescence intensity of a cell group to be measured was measured, and relative values, with a measured value of the normal cells as 1, are shown in Table 2.

Experiment [2] has the same test system. The experiment can be described thus: Effect on promoting elastin production (Elastin Assay Kit). Particulars: aged cells, 48 hours, normal cell = 1.00. On the procedure: It is known that elastin is a fiber-like protein, which has a main function of crosslinking collagen, is present in the dermis of the skin, blood vessels, ligaments, and the like, and provides elasticity to the skin. The effect of a hydroxycitric acid derivative on elastin production was examined by the following method. The aged cells and normal, unprocessed cells which were produced in Example 1 were prepared at a seeding density of 4,000 cells/cm^2 and cultured for 24 hours in the DMEM medium containing 10% fetal bovine serum. The hydroxycitric acid derivatives according to the present invention which were dissolved in 50% ethanol to the final concentration of 0 μM (for a control), 0.01 μM, and 0.1 μM were added to the DMEM medium containing 10% fetal bovine serum, and culturing was performed for 48 hours. After that, cells were collected, elastin was extracted using Elastin Assay Kit manufactured by Biocolor Ltd., and an absorbance of the extracted solution was measured at a wavelength of 513 nm.

Experiment [3] has the same test system. In words: Effect on mitochondrial function improvement (JC-1 red/green fluorescence, mitochondrial membrane potential). Particulars: aged cells (600 μM hydrogen peroxide), specimen 10 μM, 48 hours; relative value with normal cells as 1. On the procedure:
The effect on mitochondrial function improvement in human skin fibroblasts NB1-RGB cells was measured under the following conditions using a mitochondrial membrane potential as an index. By performing an operation for 4 days in which confluent NB1-RGB cells were cultured for one hour in a DMEM medium containing 10% fetal bovine serum and 600 μM hydrogen peroxide solution, cells induced of artificial aging by oxidation were prepared as aged cells. These aged cells and normal, unprocessed cells were prepared at a seeding density of 4,000 cells/cm^2 and cultured for 24 hours in the DMEM medium containing 10% fetal bovine serum. […] After changing a medium to new assay solution supplied in Assay Kit, a fluorescence intensity of the living cells was measured at an excitation wavelength of 520 to 570 nm and a fluorescence wavelength of 570 to 610 nm, and the dead cells at an excitation wavelength of 485 nm and a fluorescence wavelength of 535 nm. In order to evaluate the state of mitochondrial membrane potential, red fluorescence intensity and green fluorescence intensity of a cell group to be measured were measured, and values of red fluorescence intensity divided by green fluorescence intensity were calculated, and their relative values, with a measured value of the normal cells as 1, are shown in Table 3. […]

Take Hydroxycitric acid-2-palmitate: in experiment [1], the “Relative fluorescence intensity (green fluorescence of dead cells in which apoptosis had been caused)” value amounted to 1.04. The “Relative absorbance (513 nm) (elastin production)” value in experiment [2] (specimen 0.01 μM) came to 1.11; in experiment [2] (specimen 0.1 μM) it was 1.06. Besides, the “Relative fluorescence intensity (red fluorescence intensity divided by green fluorescence intensity; effect on mitochondrial function improvement)” value in experiment [3] turned out to be 0.72.
Turning to `CCCCCCCCCCCCCC(=O)OC(CC(=O)O)(C(=O)O)C(O)C(=O)O` (centres unmarked) [Hydroxycitric acid-2-myristate], the “Relative fluorescence intensity (green fluorescence of dead cells in which apoptosis had been caused)” value in experiment [1] is 1.13. In addition, the figures for the “Relative absorbance (513 nm) (elastin production)” value in experiment [2] (specimen 0.01 μM) and in experiment [2] (specimen 0.1 μM) were 0.93 and 0.94, respectively. For the same compound, the “Relative fluorescence intensity (red fluorescence intensity divided by green fluorescence intensity; effect on mitochondrial function improvement)” value in experiment [3] came to 0.66.
